Experiments:
Assay type in all cases: binding
MTNR1B = target: T1, MTNR1B (Homo sapiens, UniProt P49286); experiment: NanoBRET screen HiBiT-MTNR1B in HEK293; conditions: MTNR1B
T1 construct: purchased Promega (in-house HiBiT-GPCR construct library, NanoBRET)
T1 sequence (P49286 1-362): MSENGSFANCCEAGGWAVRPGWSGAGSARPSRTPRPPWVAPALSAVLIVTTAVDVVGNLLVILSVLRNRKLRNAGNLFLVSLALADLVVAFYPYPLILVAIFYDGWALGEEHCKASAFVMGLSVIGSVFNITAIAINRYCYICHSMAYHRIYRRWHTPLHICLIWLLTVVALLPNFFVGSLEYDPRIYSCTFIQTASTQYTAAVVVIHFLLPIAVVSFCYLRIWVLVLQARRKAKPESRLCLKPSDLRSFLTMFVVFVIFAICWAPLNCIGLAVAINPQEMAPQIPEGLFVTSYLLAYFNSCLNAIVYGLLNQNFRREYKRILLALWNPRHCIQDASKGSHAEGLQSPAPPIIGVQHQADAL
Procedure: (§1) Each tracer candidate was screened across the entire library of HiBiT-GPCR constructs using NanoBRET as the detection modality. As depicted in Figure 4A, the specificity of interactions was evaluated through decrease in BRET due to competitive displacement of a bound tracer by excess parental compound. Each tracer was analyzed for binding to each HiBiT-GPCR fusion in the absence and in the presence of competing parental compound. Briefly, HEK293 cells were transfected with HiBiT-GPCR constructs diluted into promoterless DNA to reduce expression and maximize translocation to the cell surface. Each tracer candidate was then screened at concentrations of 1 μM and 0.1 μM across cells expressing these fusions. Cells were treated for 1.5 h with tracer either alone or in the presence of 20 μM competing parental compound (i.e., control). BRET was measured upon addition of purified LgBiT and subsequent complementation with HiBiT genetically fused to a GPCR. The specificity of interactions was assessed through a decrease in BRET signal due to competitive displacement of the bound tracer. To further gauge the robustness of these interactions, the fold response over the control (i.e., BRETtracer/BRETcontrol) was calculated. We chose a 1.5-fold response, which translates to ≥7-fold signal over noise as the minimal threshold required to score an interaction as positive. […]. Below we highlight the screening results obtained for our exemplary fluorescent tracers based on Clozapine, Amitriptyline and AZD1283.
(§2) HiBiT-GPCR DNA constructs were diluted in 10 mM Tris pH 8 to a final concentration of 0.01 μg/μL, arrayed in 96-well plates and stored at −20 °C. For transfection, HEK293 cells were suspended in Opti-MEM (without phenol red) supplemented with 2% fetal bovine serum (Seradigm) and 100 units/mL penicillin–streptomycin (Gibco) at a final concentration of 220,000 cells/mL and dispensed into white 96-well plates at 90 μL/well. Subsequent transfections and screens were carried using an Agilent Bravo Automated Liquid Handling Platform. First, the 96-well HiBiT DNA arrays were diluted 25-fold in Opti-MEM (without serum or phenol red) to a final concentration of 0.0004 μg/μL and 20 μL of the diluted DNAs were transferred into new 96-well plates. Next, promoterless carrier DNA (1 μg/μL) was diluted 25-fold (0.04 μg/μL) and then dispensed into the diluted arrays at 20 μL/well. Following brief mixing, Viafect transfection reagent (Promega) diluted 16-fold into Opti-MEM was dispensed into the plates at 40 μL/well. After mixing by pipetting, plates were incubated for 10 min on the pipetting station deck. The DNA-transfection reagent complexes were then added to plates containing cells. To facilitate the screen, 10 μL of DNA-transfection reagent complexes were added in duplicates to the top 4 and bottom 4 rows, resulting in two identical 48-well arrays per plate. Plates with transfected cells were incubated for 18–20 h at 37 °C/5% CO2. A screen of each tracer across the entire library using two different concentrations requires duplicate plates of transfected cells. Depending on the number of tracers being screened, transfections can be scaled up using the same ratios. The next day, for each tracer, four 20× screening solutions in tracer dilution buffer (Promega) were prepared: two duplicates at final concentration of 20 μM and two duplicates at a final concentration of 2 μM. A competing unmodified compound was added to one of each duplicate at a final concentration of 400 μM. The four resulting solutions were diluted 4-fold in Opti-MEM without serum or phenol red to generate 5× solutions (5 µM and 0.5 µM tracer +/− 100 μM competing compound). To screen the library, a BioTek MultiFlo FX liquid dispenser was used to dispense 22.5 µL of tracer solution to the top 4 rows and 22.5 µL tracer + competing compound solution to the 4 bottom rows. Plates were briefly mixed on an orbital shaker and incubated for 1.5 h at room temperature. […]

PTGER3 = target: T2, PTGER3 (Homo sapiens, UniProt P43115); experiment: NanoBRET screen HiBiT-PTGER3 in HEK293
T2 construct: purchased Promega (in-house HiBiT-GPCR construct library, NanoBRET)
T2 sequence (P43115 1-390): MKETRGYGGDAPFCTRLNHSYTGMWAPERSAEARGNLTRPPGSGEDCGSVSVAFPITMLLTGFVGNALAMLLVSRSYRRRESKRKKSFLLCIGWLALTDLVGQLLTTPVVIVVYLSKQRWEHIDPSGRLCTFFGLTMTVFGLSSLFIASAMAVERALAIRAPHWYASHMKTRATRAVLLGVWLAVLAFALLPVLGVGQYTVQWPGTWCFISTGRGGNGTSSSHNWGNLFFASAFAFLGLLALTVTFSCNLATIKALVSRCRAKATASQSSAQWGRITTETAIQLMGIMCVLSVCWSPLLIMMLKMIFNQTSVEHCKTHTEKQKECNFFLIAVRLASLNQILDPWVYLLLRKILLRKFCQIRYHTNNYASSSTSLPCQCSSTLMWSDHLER
Procedure: as §1, §2

OXTR = target: T3, OXTR (Homo sapiens, UniProt P30559); experiment: NanoBRET screen HiBiT-OXTR in HEK293
T3 construct: purchased Promega (in-house HiBiT-GPCR construct library, NanoBRET)
T3 sequence (P30559 1-389): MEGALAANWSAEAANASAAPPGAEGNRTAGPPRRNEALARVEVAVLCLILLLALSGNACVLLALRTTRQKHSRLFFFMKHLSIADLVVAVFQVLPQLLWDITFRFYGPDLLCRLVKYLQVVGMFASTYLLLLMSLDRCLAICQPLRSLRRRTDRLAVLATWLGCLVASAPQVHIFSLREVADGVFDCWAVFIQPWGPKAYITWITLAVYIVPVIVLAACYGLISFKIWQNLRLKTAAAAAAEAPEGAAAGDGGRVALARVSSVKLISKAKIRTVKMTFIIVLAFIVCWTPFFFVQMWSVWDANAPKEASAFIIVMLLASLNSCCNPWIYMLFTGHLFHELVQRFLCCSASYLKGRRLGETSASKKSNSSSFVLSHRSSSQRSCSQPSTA
Procedure: as §1, §2

Compound	NanoBRET Fold Response (MTNR1B; tracer 0.1μM)	NanoBRET Fold Response (MTNR1B; tracer 1μM)	NanoBRET Fold Response (PTGER3; PTGER3, tracer 0.1μM)	NanoBRET Fold Response (PTGER3; PTGER3, tracer 1μM)	NanoBRET Fold Response (OXTR; OXTR, tracer 0.1μM)	NanoBRET Fold Response (OXTR; OXTR, tracer 1μM)	also measured
CN1CCN(C2=Nc3cc(Cl)ccc3Nc3ccc(CNC(=O)CCOCCOCCOCCOCCNC(=O)CCc4ccc5n4[B-](F)(F)[N+]4=C(c6ccc[nH]6)C=CC4=C5)cc32)CC1 [Clozapine-b-2-NB590]							NanoBRET Fold Response (MTNR1B; 0.1μM tracer): 0.95; NanoBRET Fold Response (MTNR1B; 1μM tracer): 1.05; NanoBRET Fold Response (PTGER3; PTGER3, 0.1μM tracer): 0.97; NanoBRET Fold Response (PTGER3; PTGER3, 1μM tracer): 0.97; NanoBRET Fold Response (OXTR; OXTR, 0.1μM tracer): 1.05; NanoBRET Fold Response (OXTR; OXTR, 1μM tracer): 1.03
CN(C)CCC=C1c2ccccc2CCc2ccc(C(=O)NCCNC(=O)CCOCCOCCOCCOCCNC(=O)CCc3ccc4n3[B-](F)(F)[N+]3=C(c5ccc[nH]5)C=CC3=C4)cc21 [Amitriptyline-b-2-NB590]	1.02	1.04					NanoBRET Fold Response (PTGER3; tracer at 0.1μM): 0.96; NanoBRET Fold Response (PTGER3; tracer at 1μM): 1.01; NanoBRET Fold Response (OXTR; tracer at 0.1μM, listed as amitriptyline-b-2-NB590): 1.08; NanoBRET Fold Response (OXTR; tracer at 1μM, listed as amitriptyline-b-2-NB590): 1.01
CCOC(=O)c1cc(C#N)c(N2CCC(C(=O)NS(=O)(=O)Cc3ccccc3/C=C/C(=O)NCCNC(=O)CCc3ccc4n3[B-](F)(F)[N+]3=C(c5ccc[nH]5)C=CC3=C4)CC2)nc1C [AZD1283-1-NB590]							NanoBRET Fold Response (MTNR1B; 0.1μM): 0.97; NanoBRET Fold Response (MTNR1B; 1μM): 0.53; NanoBRET Fold Response (PTGER3; PTGER3, 0.1μM): 1.08; NanoBRET Fold Response (PTGER3; PTGER3, 1μM): 1.10; NanoBRET Fold Response (OXTR; OXTR, 0.1μM): 1.07; NanoBRET Fold Response (OXTR; OXTR, 1μM): 1.07
CC(C)N(CC[C@H](c1ccccc1)c1cc(CCNC(=O)CCOCCOCCOCCOCCNC(=O)CCc2ccc3n2[B-](F)(F)[N+]2=C(c4ccc[nH]4)C=CC2=C3)ccc1O)C(C)C [Tolterodine-2-NB590]	0.95	0.79	1.14	0.99	0.97	0.94	
CC(C)N(CC[C@H](c1ccccc1)c1cc(CCNC(=O)c2ccc(CNC(=O)CCc3ccc4n3[B-](F)(F)[N+]3=C(c5ccc[nH]5)C=CC3=C4)cc2)ccc1O)C(C)C [Tolterodine-BZ-NB590]	0.97	1.04	0.99	1.07	1.02	1.01	
O=C(CCOCCOCCOCCOCCNC(=O)CCc1ccc2n1[B-](F)(F)[N+]1=C(c3ccc[nH]3)C=CC1=C2)NCCCN1CCN(C2=Nc3ccccc3Oc3ccc(Cl)cc32)CC1 [Loxapine-a-2-NB590]	0.44	1.04	0.98	0.98	0.97	1.02	

From article PMC8151276, “An Integrated Approach toward NanoBRET Tracers for Analysis of GPCR Ligand Engagement” (Molecules, 2021)
